Laboratory results as given in patent publication US20080161288A1, “COMPOUNDS” (Pfizer Inc., priority 2006, published 2008).

Assays:
[1] = target: T1, bovine beta-2 adrenoceptor (Bos taurus, UniProt Q28044); experiment: cAMP assay in CHO cells transfected with the bovine beta-2 adrenoceptor; format: cell-based; conditions: cAMP (DiscoveRx Hit Hunter cAMP II) in CHO cells transfected with bovine beta-2 adrenoceptor, 30 minutes with compound, 0.5 mM IBMX
T1 construct: expressed in transfected cells; host or cells: CHO cells
T1 sequence (Q28044 whole entry): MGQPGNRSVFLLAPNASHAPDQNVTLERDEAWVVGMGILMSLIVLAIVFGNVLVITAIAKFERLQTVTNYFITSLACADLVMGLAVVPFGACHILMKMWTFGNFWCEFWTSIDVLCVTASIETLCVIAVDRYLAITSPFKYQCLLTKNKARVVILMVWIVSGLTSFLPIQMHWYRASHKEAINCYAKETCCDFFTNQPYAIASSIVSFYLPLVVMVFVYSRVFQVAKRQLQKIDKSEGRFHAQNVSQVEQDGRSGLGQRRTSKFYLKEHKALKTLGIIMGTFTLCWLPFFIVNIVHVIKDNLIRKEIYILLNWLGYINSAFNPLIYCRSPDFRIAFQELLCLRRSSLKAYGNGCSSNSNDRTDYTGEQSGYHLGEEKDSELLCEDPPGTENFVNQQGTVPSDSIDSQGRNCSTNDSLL
Experimental: (§1) CHO cells transfected with the bovine or porcine beta-2 adrenceptors were maintained in culture in DMEM/HAMS F12+10% FBS+2 mM glutamine+500 μg/ml geneticin (for the porcine receptor the medium was supplement with 1.5 mM HEPES) at 37° C. with a 5% CO2 atmosphere.
(§2) Cells were plated into 96 well viewplates in medium and incubated overnight at 37° C. with a 5% CO2 atmosphere. The cells were pre-incubated with 0.5 mM IBMX in PBS for 30 minutes prior to incubation with increasing concentrations of experimental compound (5×10^−12 to 10^−5 M) for 30 minutes at 37° C. with a 5% CO2 atmosphere. At the end of the incubation time the compound was removed and the cells assayed for cAMP using the DiscoveRx Hit Hunter cAMP II™ assay kit.
(§3) Duplicate samples were run for each experimental compound and the data generated was analysed using EC50 analysis software in Graphpad Prism.

[2] = target: T2, porcine beta-2 adrenoceptor (Sus scrofa, UniProt Q28997); experiment: cAMP assay in CHO cells transfected with the porcine beta-2 adrenoceptor; format: cell-based; conditions: cAMP (DiscoveRx Hit Hunter cAMP II) in CHO cells transfected with porcine beta-2 adrenoceptor, 30 minutes with compound, 0.5 mM IBMX
T2 construct: expressed in transfected cells; host or cells: CHO cells
T2 sequence (Q28997 whole entry): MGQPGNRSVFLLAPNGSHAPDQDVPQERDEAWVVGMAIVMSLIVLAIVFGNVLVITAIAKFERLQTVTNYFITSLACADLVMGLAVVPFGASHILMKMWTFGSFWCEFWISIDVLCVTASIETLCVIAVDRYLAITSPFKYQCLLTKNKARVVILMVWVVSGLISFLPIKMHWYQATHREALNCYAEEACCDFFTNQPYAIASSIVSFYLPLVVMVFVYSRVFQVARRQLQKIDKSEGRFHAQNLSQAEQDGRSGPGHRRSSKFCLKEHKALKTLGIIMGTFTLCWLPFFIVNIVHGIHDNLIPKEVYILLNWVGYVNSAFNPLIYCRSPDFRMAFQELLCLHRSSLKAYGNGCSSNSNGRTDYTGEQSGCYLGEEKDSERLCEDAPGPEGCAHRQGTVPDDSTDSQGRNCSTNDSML
Experimental: as §1, §2, §3

EC50 [1] | EC50 [2] | Structure (SMILES)
0.234 µM | 0.0503 µM | CC(CCc1ccc(NS(=O)(=O)C(F)(F)F)cc1)NC1CCn2c(=O)[nH]c3cccc(c32)C1O (single isomer, unassigned) [Example 69, 1,1,1-Trifluoro-N-{4-[3-{[7-hydroxy-2-oxo-1,2,4,5,6,7-hexahydroimidazo[4,5,1-jk][1]benzazepin-6-yl]amino}butyl]phenyl}methanesulfonamide]
0.0464 µM | 0.0429 µM | CC(CCc1ccc(C(=O)NC2CC2)cc1)NC1CCn2c(=O)[nH]c3cccc(c32)C1O (single isomer, unassigned) [Example 64, N-Cyclopropyl-4-[3-{[7-hydroxy-2-oxo-1,2,4,5,6,7-hexahydroimidazo[4,5,1-jk][1]benzazepin-6-yl]amino}butyl]benzamide]
0.0069 µM | 0.0064 µM | CC(CCc1ccc(Cl)cc1Cl)N[C@@H]1CCn2c(=O)[nH]c3cccc(c32)[C@H]1O (mixture of isomers) [Example 29, 6-{[3-(2,4-Dichlorophenyl)-1-methylpropyl]amino}-7-hydroxy-4,5,6,7-tetrahydroimidazo[4,5,1-jk][1]benzazepin-2(1H)-one]
0.00121 µM | 0.00115 µM | CC(CCc1cc(F)c(F)cc1O)N[C@@H]1CCn2c(=O)[nH]c3cccc(c32)[C@H]1O (mixture of isomers) [Example 11a, 6-{[3-(4,5-Difluoro-2-hydroxyphenyl)-1-methylpropyl]amino}-7-hydroxy-4,5,6,7-tetrahydroimidazo[4,5,1-jk][1]benzazepin-2(1H)-one]
0.014 µM | 0.0059 µM | CC(CCc1ccc(OCC2CC2)cc1)N[C@@H]1CCn2c(=O)[nH]c3cccc(c32)[C@H]1O (mixture of isomers) [Example 1a, 6-({3-[4-(Cyclopropylmethoxy)phenyl]-1-methylpropyl}amino)-7-hydroxy-4,5,6,7-tetrahydroimidazo[4,5,1-jk][1]benzazepin-2(1H)-one]
0.0173 µM | 0.0055 µM | CC(CCc1ccc(OC(C)C)cc1)N[C@@H]1CCn2c(=O)[nH]c3cccc(c32)[C@H]1O (mixture of isomers) [Example 16, 7-Hydroxy-6-{[3-(4-isopropoxyphenyl)-1-methylpropyl]amino}-4,5,6,7-tetrahydroimidazo[4,5,1-jk][1]benzazepin-2(1H)-one]
0.123 µM | 0.101 µM | CC(CCc1cc(Cl)ccc1O)N[C@@H]1CCn2c(=O)[nH]c3cccc(c32)[C@H]1O (single isomer, unassigned) [Example 19b, 6-{[3-(5-Chloro-2-hydroxyphenyl)-1-methylpropyl]amino}-7-hydroxy-4,5,6,7-tetrahydroimidazo[4,5,1-jk][1]benzazepin-2(1H)-one]
0.0243 µM | 0.0189 µM | CNC(=O)c1cccc(CCC(C)NC2CCn3c(=O)[nH]c4cccc(c43)C2O)c1 (single isomer, unassigned) [Example 62, 3-[3-{[7-Hydroxy-2-oxo-1,2,4,5,6,7-hexahydroimidazo[4,5,1-jk][1]benzazepin-6-yl]amino}butyl]-N-methylbenzamide]
0.0072 µM | 0.0056 µM | CC(CCc1cccc(O)c1)N[C@@H]1CCn2c(=O)[nH]c3cccc(c32)[C@H]1O (mixture of isomers) [Example 43, 7-Hydroxy-6-{[3-(3-hydroxyphenyl)-1-methylpropyl]amino}-4,5,6,7-tetrahydroimidazo[4,5,1-jk][1]benzazepin-2(1H)-one]
0.167 µM | 0.0788 µM | CC(CCc1cccc(C(=O)O)c1)N[C@@H]1CCn2c(=O)[nH]c3cccc(c32)[C@H]1O (single isomer, unassigned) [Example 53]
0.0006 µM | 0.0009 µM | CC(CCc1cc(Cl)ccc1O)N[C@@H]1CCn2c(=O)[nH]c3cccc(c32)[C@H]1O (single isomer, unassigned) [Example 19a, 6-{[3(5-Chloro-2-hydroxyphenyl)-1-methylpropyl]amino}-7-hydroxy-4,5,6,7-tetrahydroimidazo[4,5,1-jk][1]benzazepin-2(1H)-one]
0.0231 µM | 0.0117 µM | CC(CCc1ccc2c(c1)OCO2)NC1CCn2c(=O)[nH]c3cccc(c32)C1O (centres unmarked) [Example 12, 6-{[3-(1,3-Benzodioxol-5-yl)-1-methylpropyl]amino}-7-hydroxy-4,5,6,7-tetrahydroimidazo[4,5,1-jk][1]benzazepin-2(1H)-one]
0.0034 µM | 0.0042 µM | CC(CC(C)(C)c1ccccc1)N[C@@H]1CCn2c(=O)[nH]c3cccc(c32)[C@H]1O (single isomer, unassigned) [Example 14b, 6-[(1,3-Dimethyl-3-phenylbutyl)amino]-7-hydroxy-4,5,6,7-tetrahydroimidazo[4,5,1-jk][1]benzazepin-2(1H)-one]
0.0134 µM | 0.0061 µM | CC(CCc1ccc(O)cc1)N[C@@H]1CCn2c(=O)[nH]c3cccc(c32)[C@H]1O (single isomer, unassigned) [Example 2a, 7-Hydroxy-6-{[3-(4-hydroxyphenyl)-1-methylpropyl]amino}-4,5,6,7-tetrahydroimidazo[4,5,1-jk][1]benzazepin-2(1H)-on]
0.0031 µM | 0.0017 µM | CC(CCc1ccc(Cl)cc1O)N[C@@H]1CCn2c(=O)[nH]c3cccc(c32)[C@H]1O (mixture of isomers) [Example 26, 6-{[3-(4-Chloro-2-hydroxyphenyl)-1-methylpropyl]amino}-7-hydroxy-4,5,6,7-tetrahydroimidazo[4,5,1-jk][1]benzazepin-2(1H)-one]
0.0032 µM | 0.0031 µM | COc1ccc(O)c(CCC(C)N[C@@H]2CCn3c(=O)[nH]c4cccc(c43)[C@H]2O)c1 (mixture of isomers) [Example 21, 7-Hydroxy-6-{[3-(2-hydroxy-5-methoxyphenyl)-1-methylpropyl]amino}-4,5,6,7-tetrahydroimidazo[4,5,1-jk][1]benzazepin-2(1H)-one]
0.298 µM | 0.121 µM | CC(CCc1ccc(O)cc1)N[C@@H]1CCn2c(=O)[nH]c3cccc(c32)[C@H]1O (single isomer, unassigned) [Example 2b, 7-Hydroxy-6-{[3-(4-hydroxyphenyl)-1-methylpropyl]amino}-4,5,6,7-tetrahydroimidazo[4,5,1-jk][1]benzazepin-2(1H)-on]
0.0122 µM | 0.0048 µM | CC(CCc1ccc(OCC2CC2)cc1)N[C@@H]1CCn2c(=O)[nH]c3cccc(c32)[C@H]1O (mixture of isomers) [Example 1c, 6-({3-[4-(Cyclopropylmethoxy)phenyl]-1-methylpropyl}amino)-7-hydroxy-4,5,6,7-tetrahydroimidazo[4,5,1-jk][1]benzazepin-2(1H)-one]
0.0158 µM | 0.0105 µM | CC(CCc1ccc(F)cc1)N[C@@H]1CCn2c(=O)[nH]c3cccc(c32)[C@H]1O (mixture of isomers) [Example 23, 6-{[3-(4-Fluorophenyl)-1-methylpropyl]amino}-7-hydroxy-4,5,6,7-tetrahydroimidazo[4,5,1-jk][1]benzazepin-2(1H)-one]
0.012 µM | 0.0125 µM | CCC(=O)Nc1cccc(CCC(C)NC2CCn3c(=O)[nH]c4cccc(c43)C2O)c1 (single isomer, unassigned) [Example 61, N-{3-[3-{[7-Hydroxy-2-oxo-1,2,4,5,6,7-hexahydroimidazo[4,5,1-jk][1]benzazepin-6-yl]amino}butyl]phenyl}propanamide]
0.0043 µM | 0.0039 µM | Cc1ccccc1CCC(C)NC1CCn2c(=O)[nH]c3cccc(c32)C1O (centres unmarked) [Example 13a, 7-hydroxy-6-{[1-Methyl-3-(2-methylphenyl)propyl]amino}-4,5,6,7-tetrahydroimidazo[4,5,1-jk][1]benzazepin-2(1H)-one]
0.0052 µM | 0.0028 µM | CCS(=O)(=O)Nc1ccccc1CCC(C)NC1CCn2c(=O)[nH]c3cccc(c32)C1O (single isomer, unassigned) [Example 56, N-{2-[3-{[7-Hydroxy-2-oxo-1,2,4,5,6,7-hexahydroimidazo[4,5,1-jk][1]benzazepin-6-yl]amino}butyl]phenyl}ethanesulfonamide]
0.0757 µM | 0.0617 µM | CC(CCc1cccc(CO)c1)N[C@@H]1CCn2c(=O)[nH]c3cccc(c32)[C@H]1O (mixture of isomers) [Example 44, 7-Hydroxy-6-({3-[3-(hydroxymethyl)phenyl]-1-methylpropyl}amino)-4,5,6,7-tetrahydroimidazo[4,5,1-jk][1]benzazepin-2(1H)-one]
– | 0.0119 µM | CC(CCc1ccccc1NS(C)(=O)=O)N[C@@H]1CCn2c(=O)[nH]c3cccc(c32)[C@H]1O (mixture of isomers) [Example 33, N-[2-(3-{[7-Hydroxy-2-oxo-1,2,4,5,6,7-hexahydroimidazo[4,5,1-jk][1]benzazepin-6-yl]amino}butyl)phenyl]methanesulfonamide]
0.156 µM | – | CC(CCc1ccc(NS(=O)(=O)c2ccccc2)cc1)NC1CCn2c(=O)[nH]c3cccc(c32)C1O (single isomer, unassigned) [Example 67, N-{4-[3-{[7-Hydroxy-2-oxo-1,2,4,5,6,7-hexahydroimidazo[4,5,1-jk][1]benzazepin-6-yl]amino}butyl]phenyl}benzenesulfonamide]

Structure (SMILES) | EC50 [1] | EC50 [2]
C[C@H](CCc1ccc(N)cc1)N[C@@H]1CCn2c(=O)[nH]c3cccc(c32)[C@H]1O (single isomer, unassigned) [Example 45, 6-{[3-(4-Aminophenyl)-1-methylpropyl]amino}-7-hydroxy-4,5,6,7-tetrahydroimidazo[4,5,1-jk][1]benzazepin-2(1H)-one] | 0.0303 µM | 0.021 µM
